From PubChem BioAssay (NCI)
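In this assay, cells in 96-well plates receive the compound at five concentrations for 48 hours. Endpoints are linearly interpolated between the surrounding concentrations. Here, GI50 denotes the concentration required for 50% inhibition of growth. Definition used: TGI = concentration required for complete inhibition of growth.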

Columns and labels:
Test in all cases: inhibition of tumour cell growth, NCI panel, 48 h; in the data active = GI50 below about 0.43 µM; inactive = the rest
MDA-MB-435 = tested on: MDA-MB-435
SK-MEL-28 melanoma = tested on: SK-MEL-28 melanoma
BT-549 breast = tested on: BT-549 breast
TK-10 renal = tested on: TK-10 renal
NCI-H522 lung = tested on: NCI-H522 lung
IGROV1 ovarian = tested on: IGROV1 ovarian
MCF7 breast = tested on: MCF7 breast
DU-145 prostate = tested on: DU-145 prostate
NCI-H460 lung = tested on: NCI-H460 lung
OVCAR-4 ovarian = tested on: OVCAR-4 ovarian
M14 melanoma = tested on: M14 melanoma

COC(=O)c1cc(=O)nc2sc3cccc(C)c3n12
48.3 µM: TGI (NCI-H522 lung)
> 100 µM: TGI (MDA-MB-435) | TGI (SK-MEL-28 melanoma) | TGI (BT-549 breast) | TGI (TK-10 renal) | TGI (IGROV1 ovarian) | TGI (MCF7 breast) | TGI (DU-145 prostate) | TGI (NCI-H460 lung) | TGI (OVCAR-4 ovarian) | TGI (M14 melanoma)

CCOC(=O)C1(C/C=C/CBr)Cc2ccccc2C1=O (stereo unspecified)
8.86 µM: TGI (BT-549 breast)
3.19 µM: TGI (MDA-MB-435)
9.15 µM: TGI (TK-10 renal)
6.02 µM: TGI (OVCAR-4 ovarian)
8.73 µM: TGI (MCF7 breast)
11.6 µM: TGI (M14 melanoma)
3.11 µM: TGI (NCI-H522 lung)
28.3 µM: TGI (DU-145 prostate)
20.8 µM: TGI (SK-MEL-28 melanoma)
10.3 µM: TGI (IGROV1 ovarian)
4.21 µM: TGI (NCI-H460 lung)

CN1CCc2cc(N)cc3c2C1Cc1ccc(O)c(O)c1-3 (stereo unspecified)
> 100 µM: TGI (MDA-MB-435) | TGI (SK-MEL-28 melanoma) | TGI (BT-549 breast) | TGI (TK-10 renal) | TGI (NCI-H522 lung) | TGI (IGROV1 ovarian) | TGI (DU-145 prostate) | TGI (NCI-H460 lung) | TGI (OVCAR-4 ovarian) | TGI (M14 melanoma)

CCOC(=O)/C=C/CC(C)(C)CCOC(C)=O
> 10 µM: TGI (MDA-MB-435) | TGI (SK-MEL-28 melanoma) | TGI (TK-10 renal) | TGI (NCI-H522 lung) | TGI (IGROV1 ovarian) | TGI (MCF7 breast) | TGI (DU-145 prostate) | TGI (NCI-H460 lung) | TGI (OVCAR-4 ovarian) | TGI (M14 melanoma)

Cc1n[nH]c(=O)n1/N=C/c1ccc(Cl)cc1
> 100 µM: TGI (MDA-MB-435) | TGI (SK-MEL-28 melanoma) | TGI (BT-549 breast) | TGI (NCI-H522 lung) | TGI (DU-145 prostate) | TGI (NCI-H460 lung) | TGI (OVCAR-4 ovarian) | TGI (M14 melanoma)

COc1cc2c(c(OC)c1OC)C(=O)[C@@H]1[C@H]2N1C(N)=O
> 100 µM: TGI (MDA-MB-435) | TGI (SK-MEL-28 melanoma) | TGI (TK-10 renal) | TGI (NCI-H522 lung) | TGI (IGROV1 ovarian) | TGI (MCF7 breast) | TGI (DU-145 prostate) | TGI (NCI-H460 lung) | TGI (M14 melanoma)

O=C(CCN1CCCCC1)C(=Cc1ccccc1)C(=O)CCN1CCCCC1
> 100 µM: TGI (SK-MEL-28 melanoma) | TGI (IGROV1 ovarian) | TGI (MCF7 breast) | TGI (NCI-H460 lung) | TGI (OVCAR-4 ovarian)
inactive: GI50 (SK-MEL-28 melanoma) > 100 µM | GI50 (NCI-H522 lung) 15.1 µM

COc1ccc2c(c1)/C(=C/CCN(C)C)c1ccccc1S2
> 100 µM: TGI (MDA-MB-435) | TGI (TK-10 renal) | TGI (DU-145 prostate) | TGI (NCI-H460 lung) | TGI (M14 melanoma)
38.8 µM: TGI (SK-MEL-28 melanoma)

Cc1ccc([N+](=O)[O-])cc1NC1=NCCO1
> 100 µM: TGI (MDA-MB-435) | TGI (SK-MEL-28 melanoma) | TGI (TK-10 renal) | TGI (NCI-H522 lung) | TGI (IGROV1 ovarian) | TGI (MCF7 breast) | TGI (DU-145 prostate) | TGI (NCI-H460 lung) | TGI (OVCAR-4 ovarian) | TGI (M14 melanoma)

C1CN(c2nc3c(nnc4nc(N5CCOCC5)sc43)s2)CCO1
> 100 µM: TGI (MDA-MB-435) | TGI (SK-MEL-28 melanoma) | TGI (BT-549 breast) | TGI (TK-10 renal) | TGI (NCI-H522 lung) | TGI (IGROV1 ovarian) | TGI (MCF7 breast) | TGI (DU-145 prostate) | TGI (OVCAR-4 ovarian) | TGI (M14 melanoma)

N#CC1(C#N)N[C@@H](c2ccsc2)[C@H]2C(=O)N(c3ccccc3)C(=O)[C@H]21
> 100 µM: TGI (MDA-MB-435) | TGI (SK-MEL-28 melanoma) | TGI (BT-549 breast) | TGI (TK-10 renal) | TGI (NCI-H522 lung) | TGI (IGROV1 ovarian) | TGI (DU-145 prostate)

c1ccc(N=c2sc3ccccc3nc2Nc2ccccc2)cc1
> 100 µM: TGI (MDA-MB-435) | TGI (SK-MEL-28 melanoma) | TGI (TK-10 renal) | TGI (NCI-H522 lung) | TGI (IGROV1 ovarian) | TGI (DU-145 prostate) | TGI (NCI-H460 lung) | TGI (OVCAR-4 ovarian)

C=C(C)C(=O)OC1C/C(CO)=C\C(O)C/C(C)=C/C2OC(=O)C(=C)C21 (stereo unspecified)
33.4 µM: TGI (SK-MEL-28 melanoma)
63.4 µM: TGI (OVCAR-4 ovarian)
40.6 µM: TGI (M14 melanoma)
35 µM: TGI (NCI-H460 lung)
41.2 µM: TGI (TK-10 renal)
30.3 µM: TGI (NCI-H522 lung)
> 100 µM: TGI (IGROV1 ovarian)

CCCCC#C[I+]c1ccccc1
28.9 µM: TGI (OVCAR-4 ovarian)
26.9 µM: TGI (NCI-H460 lung)
29 µM: TGI (M14 melanoma)
36.4 µM: TGI (IGROV1 ovarian)
31.8 µM: TGI (SK-MEL-28 melanoma)
15.5 µM: TGI (NCI-H522 lung)
28.6 µM: TGI (TK-10 renal)

C[C@@H](NC(=O)[C@@H]1C[C@]1(C)COC(=O)c1cc([N+](=O)[O-])cc([N+](=O)[O-])c1)c1cccc2ccccc12
> 100 µM: TGI (MDA-MB-435) | TGI (SK-MEL-28 melanoma) | TGI (BT-549 breast) | TGI (TK-10 renal) | TGI (IGROV1 ovarian) | TGI (MCF7 breast) | TGI (DU-145 prostate) | TGI (NCI-H460 lung) | TGI (OVCAR-4 ovarian) | TGI (M14 melanoma)

Clc1ccccc1C(SCc1ccccc1)SCc1ccccc1
> 100 µM: TGI (SK-MEL-28 melanoma) | TGI (BT-549 breast) | TGI (TK-10 renal) | TGI (NCI-H522 lung) | TGI (IGROV1 ovarian) | TGI (MCF7 breast) | TGI (DU-145 prostate) | TGI (NCI-H460 lung) | TGI (OVCAR-4 ovarian) | TGI (M14 melanoma)

CCC(C(=O)O)c1ccc(OC)cc1 (stereo unspecified)
> 100 µM: TGI (SK-MEL-28 melanoma) | TGI (TK-10 renal) | TGI (NCI-H522 lung) | TGI (IGROV1 ovarian) | TGI (NCI-H460 lung) | TGI (OVCAR-4 ovarian) | TGI (M14 melanoma)

N#Cc1c(N2CCCC2)ncn(-c2ccccc2)c1=O
> 100 µM: TGI (MDA-MB-435) | TGI (SK-MEL-28 melanoma) | TGI (TK-10 renal) | TGI (NCI-H522 lung) | TGI (IGROV1 ovarian) | TGI (DU-145 prostate) | TGI (NCI-H460 lung) | TGI (OVCAR-4 ovarian) | TGI (M14 melanoma)

C=CCN1C[C@H](C)N([C@H](c2ccc(C(=O)NC(CC)CC)cc2)c2cccc(OC)c2)C[C@H]1C
99.6 µM: TGI (BT-549 breast)
> 100 µM: TGI (MDA-MB-435) | TGI (TK-10 renal) | TGI (IGROV1 ovarian) | TGI (MCF7 breast) | TGI (DU-145 prostate) | TGI (NCI-H460 lung) | TGI (OVCAR-4 ovarian)
34.7 µM: TGI (NCI-H522 lung)
34.4 µM: TGI (M14 melanoma)

O=[N+]([O-])c1ccc2c(c1)c(OCc1ccccc1)nn2Cc1ccccc1
> 100 µM: TGI (MDA-MB-435) | TGI (SK-MEL-28 melanoma) | TGI (BT-549 breast) | TGI (TK-10 renal) | TGI (NCI-H522 lung) | TGI (IGROV1 ovarian) | TGI (MCF7 breast) | TGI (DU-145 prostate) | TGI (NCI-H460 lung) | TGI (M14 melanoma)

CN1C(=O)C2CCC(=O)N2c2cccnc21 (stereo unspecified)
> 100 µM: TGI (MDA-MB-435) | TGI (SK-MEL-28 melanoma) | TGI (BT-549 breast) | TGI (TK-10 renal) | TGI (NCI-H522 lung) | TGI (IGROV1 ovarian) | TGI (MCF7 breast) | TGI (DU-145 prostate) | TGI (NCI-H460 lung) | TGI (OVCAR-4 ovarian)

CCOC(=O)c1csc(NC(=O)CN2CCOCC2)n1
> 100 µM: TGI (MDA-MB-435) | TGI (SK-MEL-28 melanoma) | TGI (TK-10 renal) | TGI (IGROV1 ovarian) | TGI (MCF7 breast) | TGI (DU-145 prostate) | TGI (NCI-H460 lung) | TGI (OVCAR-4 ovarian) | TGI (M14 melanoma)

O=C1c2ccccc2-c2c1c1ccccc1c(=O)n2CCNCCNCCNCCn1c2c(c3ccccc3c1=O)C(=O)c1ccccc1-2
inactive: GI50 (MDA-MB-435) 0.993 µM | GI50 (M14 melanoma) 1.61 µM
active: GI50 (MCF7 breast) 0.0329 µM | GI50 (DU-145 prostate) 0.33 µM | GI50 (NCI-H460 lung) 0.0707 µM
1.76 µM: TGI (DU-145 prostate)
4.7 µM: TGI (MDA-MB-435)
3.5 µM: TGI (M14 melanoma)
> 100 µM: TGI (NCI-H460 lung)
0.298 µM: TGI (MCF7 breast)
